Values of other authors in patent US20100273711A1, “INDIVIDUALIZED CANCER TREATMENTS” (priority 2007, published 2010).

What was measured:
[1] = test system: SW13; settings: pemetrexed, cell line Sw13; cited from earlier work
[2] = test system: HCC-2998; settings: pemetrexed, cell line HCC-2998; cited from earlier work
[3] = test system: M14; settings: pemetrexed, cell line M14; cited from earlier work
[4] = test system: SKMel19; settings: pemetrexed, cell line SKMel19; cited from earlier work
[5] = test system: MALME-3M; settings: pemetrexed, cell line MALME-3M; cited from earlier work
[6] = test system: SNU423; settings: pemetrexed, cell line SNU423; cited from earlier work
[7] = test system: SK-MEL-28; settings: pemetrexed, cell line SK-MEL-28; cited from earlier work
[8] = test system: HCT-116; settings: pemetrexed, cell line HCT-116; cited from earlier work
[9] = test system: BT20; settings: pemetrexed, cell line BT20; cited from earlier work
[10] = test system: OVKAR; settings: pemetrexed, cell line OVKAR; cited from earlier work
[11] = test system: R103; settings: pemetrexed, cell line R103; cited from earlier work
[12] = test system: HL-60; settings: pemetrexed, cell line HL-60; cited from earlier work
[13] = test system: SK-MEL-2; settings: pemetrexed, cell line SK-MEL-2; cited from earlier work
[14] = test system: Molt-4; settings: pemetrexed, cell line Molt-4; cited from earlier work
[15] = test system: NCI-H460; settings: pemetrexed, cell line NCI-H460; cited from earlier work

## Nc1nc2[nH]cc(CCc3ccc(C(=O)N[C@@H](CCC(=O)O)C(=O)O)cc3)c2c(=O)[nH]1 [Pemetrexed, pemetrexed]
[1]
  Resistant (Res) or Sensitive (Sen): Res
[2]
  Resistant (Res) or Sensitive (Sen): Res
[3]
  Resistant (Res) or Sensitive (Sen): Sen
[4]
  Resistant (Res) or Sensitive (Sen): Res
[5]
  Resistant (Res) or Sensitive (Sen): Sen
[6]
  Resistant (Res) or Sensitive (Sen): Res
[7]
  Resistant (Res) or Sensitive (Sen): Sen
[8]
  Resistant (Res) or Sensitive (Sen): Res
[9]
  Resistant (Res) or Sensitive (Sen): Sen
[10]
  Resistant (Res) or Sensitive (Sen): Sen
[11]
  Resistant (Res) or Sensitive (Sen): Sen
[12]
  Resistant (Res) or Sensitive (Sen): Res
[13]
  Resistant (Res) or Sensitive (Sen): Sen
[14]
  Resistant (Res) or Sensitive (Sen): Res
[15]
  Resistant (Res) or Sensitive (Sen): Res
